In ChEMBL document CHEMBL3868595, “Plazomicin is effective in a non-human primate pneumonic plague model” (Bioorg Med Chem, 2016):

Columns and labels:
[1] = Cmax in African green monkey blood at 25 mg/kg administered as iv infusion twice daily for 7 consecutive days measured on day 1 by LC-MS/MS analysis; assay type: ADME, organism-based; set-up: dose 25 mg/kg, route intravenous; settings: chlorocebus aethiops
[2] = AUC (0 to 24 hrs) in African green monkey blood at 35 mg/kg administered as iv infusion twice daily for 7 consecutive days measured on day 1 by LC-MS/MS analysis; assay type: ADME, organism-based; set-up: dose 35 mg/kg, time < 24 hr, route intravenous; settings: chlorocebus aethiops
[3] = AUC (0 to 24 hrs) in African green monkey blood at 35 mg/kg administered as iv infusion twice daily for 7 consecutive days measured on day 7 by LC-MS/MS analysis; assay type: ADME, organism-based; set-up: time < 24 hr, dose 35 mg/kg, route intravenous; settings: chlorocebus aethiops
[4] = Elimination half life in African green monkey blood at 35 mg/kg administered as iv infusion twice daily for 7 consecutive days measured on day 1 by LC-MS/MS analysis; assay type: ADME, organism-based; settings: chlorocebus aethiops, read-out: beta t1/2 (converted)
[5] = Clearance in African green monkey blood at 25 mg/kg administered as iv infusion twice daily for 7 consecutive days measured on day 7 by LC-MS/MS analysis; assay type: ADME, organism-based; settings: chlorocebus aethiops
[6] = Clearance in African green monkey blood at 35 mg/kg administered as iv infusion twice daily for 7 consecutive days measured on day 7 by LC-MS/MS analysis; assay type: ADME, organism-based; settings: chlorocebus aethiops
Yersinia pestis [7] = test: Antibacterial activity against Yersinia pestis Colorado 92 infected in African green monkey B6783 model assessed as bacterial burden in lung at 12.5 mg/kg, iv administered within 6 hrs post onset of sustained fever as 30 mins infusion for 5 days (reference value: 7.7 10^8CFU/g); assay type: functional, CO92
Yersinia pestis [8] = test: Antibacterial activity against Yersinia pestis Colorado 92 infected in African green monkey 8047 model assessed as bacterial burden in lung at 6.25 mg/kg, iv administered within 6 hrs post onset of sustained fever as 30 mins infusion for 10 days (reference value: 7.7 10^8CFU/g); assay type: functional, CO92
Yersinia pestis [9] = test: Antibacterial activity against Yersinia pestis Colorado 92 infected in African green monkey B6469 model assessed as bacterial burden in liver at 25 mg/kg, iv administered within 6 hrs post onset of sustained fever as 30 mins infusion for 5 days (reference value: 5.2 10^8CFU/g); assay type: functional, organism-based; settings: CO92
Yersinia pestis [10] = test: Antibacterial activity against Yersinia pestis Colorado 92 infected in African green monkey B6127 model assessed as bacterial burden in liver at 25 mg/kg, iv administered within 6 hrs post onset of sustained fever as 30 mins infusion for 10 days (reference value: 5.2 10^8CFU/g); assay type: functional, CO92
Yersinia pestis [11] = test: Antibacterial activity against Yersinia pestis Colorado 92 infected in African green monkey B6873 model assessed as bacterial burden in kidney at 12.5 mg/kg, iv administered within 6 hrs post onset of sustained fever as 30 mins infusion for 5 days (reference value: 7.1 10^7CFU/g); assay type: functional, organism-based; settings: CO92
Yersinia pestis [12] = test: Antibacterial activity against Yersinia pestis Colorado 92 infected in African green monkey C2083 model assessed as bacterial burden in kidney at 12.5 mg/kg, iv administered within 6 hrs post onset of sustained fever as 30 mins infusion for 5 days (reference value: 7.1 10^7CFU/g); assay type: functional, CO92
Yersinia pestis [13] = test: Antibacterial activity against Yersinia pestis Colorado 92 infected in African green monkey B6861 model assessed as bacterial burden in kidney at 6.25 mg/kg, iv administered within 6 hrs post onset of sustained fever as 30 mins infusion for 5 days (reference value: 7.1 10^7CFU/g); assay type: functional, CO92
Yersinia pestis [14] = test: Antibacterial activity against Yersinia pestis Colorado 92 infected in African green monkey B6436 model assessed as bacterial burden in tracheobronchial lymph nodes at 25 mg/kg, iv administered within 6 hrs post onset of sustained fever as 30 mins infusion for 5 days (reference value: 7.7 10^9CFU/g); assay type: functional, CO92, Lymph node
Yersinia pestis [15] = test: Antibacterial activity against Yersinia pestis Colorado 92 infected in African green monkey B6469 model assessed as bacterial burden in tracheobronchial lymph nodes at 25 mg/kg, iv administered within 6 hrs post onset of sustained fever as 30 mins infusion for 5 days (reference value: 7.7 10^9CFU/g); assay type: functional, organism-based; settings: CO92, Lymph node
Yersinia pestis [16] = test: Antibacterial activity against Yersinia pestis Colorado 92 infected in African green monkey B6106 model assessed as bacterial burden in tracheobronchial lymph nodes at 25 mg/kg, iv administered within 6 hrs post onset of sustained fever as 30 mins infusion for 5 days (reference value: 7.7 10^9CFU/g); assay type: functional, organism-based; settings: CO92, Lymph node
Yersinia pestis [17] = test: Antibacterial activity against Yersinia pestis Colorado 92 infected in African green monkey B6672 model assessed as bacterial burden in heart at 12.5 mg/kg, iv administered within 6 hrs post onset of sustained fever as 30 mins infusion for 5 days (reference value: 2.6 10^7CFU/g); assay type: functional, CO92
Yersinia pestis [18] = test: Antibacterial activity against Yersinia pestis Colorado 92 infected in African green monkey B6960 model assessed as bacterial burden in heart at 6.25 mg/kg, iv administered within 6 hrs post onset of sustained fever as 30 mins infusion for 5 days (reference value: 2.6 10^7CFU/g); assay type: functional, CO92
Yersinia pestis [19] = test: Antibacterial activity against Yersinia pestis Colorado 92 infected in African green monkey B6873 model assessed as bacterial burden in blood at 12.5 mg/kg, iv administered within 6 hrs post onset of sustained fever as 30 mins infusion for 5 days (reference value: 1.2 10^7CFU/ml); assay type: functional, organism-based; settings: CO92
African green monkey [20] = test: Toxicity in African green monkey B6127 model infected with Yersinia pestis Colorado 92 assessed as effect on serum electrolyte abnormality at 25 mg/kg, iv administered within 6 hrs post onset of sustained fever as 30 mins infusion for 10 days; assay type: organism-based; settings: chlorocebus sabaeus, in vivo
African green monkey [21] = test: Toxicity in African green monkey B5994 model infected with Yersinia pestis Colorado 92 assessed as blood urea nitrogen level at 25 mg/kg, iv administered within 6 hrs post onset of sustained fever as 30 mins infusion for 10 days (reference value: 15 mg/dl); assay type: organism-based; settings: chlorocebus sabaeus, in vivo
African green monkey [22] = test: Toxicity in African green monkey B6408 model infected with Yersinia pestis Colorado 92 assessed as blood urea nitrogen level at 25 mg/kg, iv administered within 6 hrs post onset of sustained fever as 30 mins infusion for 10 days (reference value: 22 mg/dl); assay type: organism-based; settings: chlorocebus sabaeus, in vivo
African green monkey [23] = test: Toxicity in African green monkey 7643 model infected with Yersinia pestis Colorado 92 assessed as blood urea nitrogen level at 25 mg/kg, iv administered within 6 hrs post onset of sustained fever as 30 mins infusion for 10 days (reference value: 16 mg/dl); assay type: organism-based; settings: chlorocebus sabaeus, in vivo
African green monkey [24] = test: Toxicity in African green monkey B6428 model infected with Yersinia pestis Colorado 92 assessed as serum gamma glutamyl-transferase level at 25 mg/kg, iv administered within 6 hrs post onset of sustained fever as 30 mins infusion for 10 days (reference value: 31 IU/L); assay type: organism-based; settings: chlorocebus sabaeus, in vivo
African green monkey [25] = test: Toxicity in African green monkey 7929 model infected with Yersinia pestis Colorado 92 assessed as serum alanine aminotransferase level at 25 mg/kg, iv administered within 6 hrs post onset of sustained fever as 30 mins infusion for 10 days (reference value: 63 IU/L); assay type: organism-based; settings: chlorocebus sabaeus, in vivo
African green monkey [26] = test: Toxicity in African green monkey 7337 model infected with Yersinia pestis Colorado 92 assessed as serum alanine aminotransferase level at 25 mg/kg, iv administered within 6 hrs post onset of sustained fever as 30 mins infusion for 10 days (reference value: 55 IU/L); assay type: organism-based; settings: chlorocebus sabaeus, in vivo

With CN[C@@H]1[C@@H](O)[C@@H](O[C@@H]2[C@@H](O)[C@H](O[C@H]3OC(CNCCO)=CC[C@H]3N)[C@@H](N)C[C@H]2NC(=O)[C@@H](O)CCN)OC[C@]1(C)O [PLAZOMICIN] as the compound, how does the Cmax [1] read?
The Cmax was 96 µg/mL.

What about the AUC(0-t) at 24 h [2] of the same compound?
Its AUC(0-t) at 24 h is 306 µg·h/mL.

And the AUC at 24 h [3]?
Its AUC at 24 h is 319 µg·h/mL.

And the half-life [4]?
The half-life was 1.7 h.

What about the clearance [5] of the same compound?
The clearance was 1.83 mL/min/kg.

And the clearance [6]?
The clearance was 1.67 mL/min/kg.

What about the Activity (Yersinia pestis [7]) of the same compound?
The Activity was 2.8 ×10⁹ CFU/g.

And the Activity (Yersinia pestis [8])?
The Activity was 6.6 ×10⁹ CFU/g.

What about the Activity (Yersinia pestis [9]) of the same compound?
The Activity was “Below limit of detection”.

And the Activity (Yersinia pestis [10])?
The Activity was 44 CFU/g.

What about the Activity (Yersinia pestis [11]) of the same compound?
The Activity was “Below limit of detection”.

What about the Activity (Yersinia pestis [12]) of the same compound?
The Activity was 3.1 ×10⁶ CFU/g.

What about the Activity (Yersinia pestis [13]) of the same compound?
The Activity was 11 CFU/g.

And the Activity (Yersinia pestis [14])?
Its Activity is 30 CFU/g.

What about the Activity (Yersinia pestis [15]) of the same compound?
The Activity was “Below limit of detection”.

What about the Activity (Yersinia pestis [16]) of the same compound?
The Activity was “Below limit of detection”.

What about the Activity (Yersinia pestis [17]) of the same compound?
The Activity was 29 CFU/g.

And the Activity (Yersinia pestis [18])?
The Activity was 1.2 ×10⁶ CFU/g.

What about the Activity (Yersinia pestis [19]) of the same compound?
Its Activity is “Below limit of detection”.

What about the Activity (African green monkey [20]) of the same compound?
Its Activity is “Toxic”.

What about the Activity (African green monkey [21]) of the same compound?
Its Activity is 18 mg/dL.

What about the Activity (African green monkey [22]) of the same compound?
The Activity was 20 mg/dL.

What about the Activity (African green monkey [23]) of the same compound?
The Activity was 19 mg/dL.

And the Activity (African green monkey [24])?
The Activity was 27 IU/L.

And the Activity (African green monkey [25])?
The Activity was 41 IU/L.

What about the Activity (African green monkey [26]) of the same compound?
Its Activity is 44 IU/L.
